# Where “and” joins values, the source holds several entries; their conditions need not be identical. Equal entries are not always repeated. Calls of active or inactive are those of the source.
# Columns and labels:
# [1] = target: T1, Heat shock factor protein 1 (Mus musculus, UniProt P38532); assay: enhancement of HSF1-driven luciferase signal – cell-based, NIH3T3, luminescence, dose retest, confirmation (AID 435004); assay type: functional;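 further: stress induced by proteasome inhibitor MG132 added 30 min after compound; luciferase reporter driven by HSF1 response element in NIH3T3 cells; actives raise luminescence as potentiators of the MG132 stress response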
# T1 sequence (P38532 whole entry): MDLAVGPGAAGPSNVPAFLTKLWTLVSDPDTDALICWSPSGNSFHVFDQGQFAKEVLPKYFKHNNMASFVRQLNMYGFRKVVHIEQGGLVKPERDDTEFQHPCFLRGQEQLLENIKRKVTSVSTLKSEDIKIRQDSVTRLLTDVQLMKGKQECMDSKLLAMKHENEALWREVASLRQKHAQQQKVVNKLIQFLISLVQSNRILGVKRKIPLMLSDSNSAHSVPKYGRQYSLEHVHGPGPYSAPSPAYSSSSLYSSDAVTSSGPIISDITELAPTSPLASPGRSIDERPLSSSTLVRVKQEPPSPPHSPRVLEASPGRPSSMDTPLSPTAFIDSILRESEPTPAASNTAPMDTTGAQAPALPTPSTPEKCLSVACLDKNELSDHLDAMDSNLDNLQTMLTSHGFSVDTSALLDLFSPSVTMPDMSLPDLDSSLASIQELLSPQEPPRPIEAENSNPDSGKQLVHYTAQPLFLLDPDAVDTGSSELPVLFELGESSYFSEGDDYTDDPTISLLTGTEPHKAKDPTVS
# [2] = alpha-synuclein stem-loop luciferase translation blockers – H4 neuroglioma cells, luminescence, confirmation (AID 1988); assay type: functional, cell-based
# [3] = Luminescence Cell-Based Dose Response HTS to Identify Inhibitors of 5'UTR Stem-Loop Driven Prion Protein mRNA Translation in H4 Neuroglioblastoma Cells. [Related pubchem assays: 1827 (Project Summary), 1813 (Primary HTS)]; assay type: functional
# Cytochrome P450 2C9 = Cytochrome P450 2C9 (Homo sapiens, UniProt P11712)
# Cytochrome P450 3A4 = Cytochrome P450 3A4 (Homo sapiens, UniProt P08684);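 further: CYP3A4 tested as one member of a cytochrome P450 panel screen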
# Cytochrome P450 2C19 = Cytochrome P450 2C19 (Homo sapiens, UniProt P33261); assay: Cytochrome panel assay with activity outcomes. Panel member name: p450-cyp2c19 Compounds with AC50 equal or less than 10 uM are considered active; assay type: functional
# Cytochrome P450 2D6 = Cytochrome P450 2D6 (Homo sapiens, UniProt P10635);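 further: CYP2D6 member of a cytochrome P450 panel assay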
# [4] = luciferase reporter signal suppression in cells – H4 neuroglioma cells, luminescence, dose response (AID 1990); assay type: functional, cell-based
# INS1 = assay: INS-1E survival protection against cytokine death – cell-based, luminescence, retest, dose response (AID 449756); assay type: functional; conditions: Rattus norvegicus;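 further: cell death triggered by IL-1 beta plus TNF-alpha plus IFN-gamma mixture; protective hits raise ATP signal compared with cytokine alone wells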
# [5] = target: FAD-linked sulfhydryl oxidase ALR (Homo sapiens, UniProt P55789); assay: ALR-catalysed DTT oxidation blockers – biochemical, H2O2 detection, luminescence, cherry-pick, dose response (AID 493248)
# [6] = Luminescence Cell-Based Dose Confirmation HTS to Identify Activators of 5'UTR Stem-Loop Driven Alpha-Synuclein mRNA Translation in H4 Neuroglioblastoma Cells. [Related pubchem assays: 1829 (Project Summary), 1814 (Primary HTS)]; assay type: functional
# [7] = Luminescence Cell-Based Dose Response HTS to Identify Activators of Luciferase Translation or Activity in H4 […] Cells. [Related pubchem assays: 1829 (Project Summary), 1814 (Primary HTS)]; assay type: functional
# H4 = assay: Luminescence Cell-Based Dose Response HTS to Identify Activators of 5'UTR Stem-Loop Driven Prion Protein mRNA Translation in H4 Neuroglioblastoma Cells. [Related pubchem assays: 1829 (Project Summary), 1814 (Primary HTS)]; assay type: functional; conditions: Homo sapiens
# [8] = target: T2, Rac GTPase-activating protein 1 (Homo sapiens, UniProt Q9H0H5); assay: blockers of MgcRacGAP-driven Rac1 GTP hydrolysis – biochemical, ADP Hunter fluorescence, primary and confirmatory, confirmation (AID 624330); assay type: functional
# T2 sequence (Q9H0H5 whole entry): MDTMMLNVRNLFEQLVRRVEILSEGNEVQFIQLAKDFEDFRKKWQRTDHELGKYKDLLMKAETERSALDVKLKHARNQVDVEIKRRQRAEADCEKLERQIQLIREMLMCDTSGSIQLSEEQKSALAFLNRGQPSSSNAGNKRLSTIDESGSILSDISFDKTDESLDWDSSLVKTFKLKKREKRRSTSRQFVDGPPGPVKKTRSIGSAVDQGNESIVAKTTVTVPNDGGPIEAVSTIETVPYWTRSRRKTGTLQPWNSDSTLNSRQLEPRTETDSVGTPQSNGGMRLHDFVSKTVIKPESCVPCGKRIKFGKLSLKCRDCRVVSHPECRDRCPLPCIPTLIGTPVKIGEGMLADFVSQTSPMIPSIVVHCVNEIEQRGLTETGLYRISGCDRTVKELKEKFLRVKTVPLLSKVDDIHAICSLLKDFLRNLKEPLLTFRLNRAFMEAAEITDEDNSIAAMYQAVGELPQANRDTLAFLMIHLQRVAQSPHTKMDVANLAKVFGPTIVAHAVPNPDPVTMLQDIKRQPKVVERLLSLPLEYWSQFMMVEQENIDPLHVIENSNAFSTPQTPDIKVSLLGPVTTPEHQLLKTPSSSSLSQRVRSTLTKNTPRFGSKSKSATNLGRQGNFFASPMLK
# Cytochrome P450 1A2 = target: T3, Cytochrome P450 1A2 (Homo sapiens, UniProt P05177);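 further: PubChem cytochrome P450 panel assay, CYP1A2 panel member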
# T3 sequence (P05177 whole entry): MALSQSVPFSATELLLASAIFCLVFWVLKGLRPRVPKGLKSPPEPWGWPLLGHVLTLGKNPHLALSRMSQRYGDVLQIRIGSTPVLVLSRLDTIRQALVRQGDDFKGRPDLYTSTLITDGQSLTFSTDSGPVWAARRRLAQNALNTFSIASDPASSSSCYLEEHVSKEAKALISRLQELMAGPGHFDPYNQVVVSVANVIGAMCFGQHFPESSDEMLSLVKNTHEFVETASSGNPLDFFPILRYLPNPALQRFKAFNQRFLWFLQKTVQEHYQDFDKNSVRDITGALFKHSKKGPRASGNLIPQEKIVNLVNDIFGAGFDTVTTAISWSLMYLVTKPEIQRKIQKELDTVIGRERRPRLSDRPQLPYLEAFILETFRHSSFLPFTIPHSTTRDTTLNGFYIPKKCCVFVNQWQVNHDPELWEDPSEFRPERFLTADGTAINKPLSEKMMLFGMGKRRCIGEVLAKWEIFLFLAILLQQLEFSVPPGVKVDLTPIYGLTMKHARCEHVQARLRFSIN
# Chain of Cytochrome P450 3A4 (P08684 whole entry): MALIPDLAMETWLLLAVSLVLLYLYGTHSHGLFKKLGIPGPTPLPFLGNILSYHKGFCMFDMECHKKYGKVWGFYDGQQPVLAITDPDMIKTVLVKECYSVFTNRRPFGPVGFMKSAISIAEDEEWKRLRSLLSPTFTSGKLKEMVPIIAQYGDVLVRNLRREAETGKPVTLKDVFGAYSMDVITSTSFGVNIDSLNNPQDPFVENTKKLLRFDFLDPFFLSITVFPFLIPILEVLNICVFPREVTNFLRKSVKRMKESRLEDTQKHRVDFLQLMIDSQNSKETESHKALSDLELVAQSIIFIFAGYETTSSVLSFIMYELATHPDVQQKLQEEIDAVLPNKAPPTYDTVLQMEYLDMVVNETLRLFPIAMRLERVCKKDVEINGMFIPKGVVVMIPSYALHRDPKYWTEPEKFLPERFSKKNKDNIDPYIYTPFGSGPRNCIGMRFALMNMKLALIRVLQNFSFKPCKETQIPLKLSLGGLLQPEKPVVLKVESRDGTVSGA
# Chain of FAD-linked sulfhydryl oxidase ALR (P55789 whole entry): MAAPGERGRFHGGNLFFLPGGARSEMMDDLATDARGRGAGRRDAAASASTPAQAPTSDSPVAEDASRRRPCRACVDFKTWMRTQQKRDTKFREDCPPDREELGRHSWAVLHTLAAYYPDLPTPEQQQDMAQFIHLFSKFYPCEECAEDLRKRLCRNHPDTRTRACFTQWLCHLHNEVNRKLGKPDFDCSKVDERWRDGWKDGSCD
# Chain of Cytochrome P450 2C19 (P33261 whole entry): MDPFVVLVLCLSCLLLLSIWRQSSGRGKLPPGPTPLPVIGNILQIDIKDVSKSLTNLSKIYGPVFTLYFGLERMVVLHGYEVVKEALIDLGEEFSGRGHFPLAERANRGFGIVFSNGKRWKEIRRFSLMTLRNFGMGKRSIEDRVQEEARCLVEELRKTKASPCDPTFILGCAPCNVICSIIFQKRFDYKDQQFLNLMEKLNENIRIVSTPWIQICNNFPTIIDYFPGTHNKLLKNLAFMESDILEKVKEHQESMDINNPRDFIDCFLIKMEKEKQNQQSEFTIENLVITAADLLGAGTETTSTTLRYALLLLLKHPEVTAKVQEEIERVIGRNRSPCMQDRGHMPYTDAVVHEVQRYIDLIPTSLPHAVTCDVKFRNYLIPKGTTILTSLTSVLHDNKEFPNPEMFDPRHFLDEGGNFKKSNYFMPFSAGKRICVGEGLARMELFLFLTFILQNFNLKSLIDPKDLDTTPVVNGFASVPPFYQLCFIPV
# Chain of Cytochrome P450 2D6 (P10635 whole entry): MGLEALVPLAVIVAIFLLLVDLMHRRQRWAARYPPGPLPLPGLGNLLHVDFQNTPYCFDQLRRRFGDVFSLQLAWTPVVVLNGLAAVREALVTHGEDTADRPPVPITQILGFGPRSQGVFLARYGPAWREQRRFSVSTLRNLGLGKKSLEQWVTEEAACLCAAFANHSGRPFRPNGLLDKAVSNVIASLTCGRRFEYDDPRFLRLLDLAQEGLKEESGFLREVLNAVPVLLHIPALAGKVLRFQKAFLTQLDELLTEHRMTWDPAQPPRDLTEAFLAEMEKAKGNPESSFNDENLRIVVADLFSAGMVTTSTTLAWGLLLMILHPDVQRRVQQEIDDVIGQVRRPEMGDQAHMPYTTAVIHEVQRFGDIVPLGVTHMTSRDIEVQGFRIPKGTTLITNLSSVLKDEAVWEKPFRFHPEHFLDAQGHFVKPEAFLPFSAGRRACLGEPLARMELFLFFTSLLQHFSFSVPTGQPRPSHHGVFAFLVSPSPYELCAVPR
# Chain of Cytochrome P450 2C9 (P11712 whole entry): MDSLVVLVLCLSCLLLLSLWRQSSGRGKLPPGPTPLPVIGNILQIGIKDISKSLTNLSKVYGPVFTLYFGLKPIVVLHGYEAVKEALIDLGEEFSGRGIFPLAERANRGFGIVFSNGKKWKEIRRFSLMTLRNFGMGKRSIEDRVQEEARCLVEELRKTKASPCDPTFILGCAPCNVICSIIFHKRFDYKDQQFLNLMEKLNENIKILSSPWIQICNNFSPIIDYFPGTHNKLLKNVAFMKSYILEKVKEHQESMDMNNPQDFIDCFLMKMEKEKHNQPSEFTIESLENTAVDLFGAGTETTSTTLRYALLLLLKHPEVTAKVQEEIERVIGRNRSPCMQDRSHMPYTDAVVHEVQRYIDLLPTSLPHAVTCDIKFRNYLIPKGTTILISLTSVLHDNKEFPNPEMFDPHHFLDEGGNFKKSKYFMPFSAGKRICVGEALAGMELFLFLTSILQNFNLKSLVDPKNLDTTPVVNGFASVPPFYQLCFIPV
smiles,measurement,setting,value
CC(C)=NN1C(=O)c2ccccc2NC1(C)C,EC50,[1],> 260 µM (inactive)
C[C@@H]1C(NC(=O)c2ccccc2)CC2CC1C2(C)C (stereo partly drawn),EC50,[1],> 260 µM (inactive)
O=C1c2ccccc2C(=O)N1CC(O)COc1ccc(Br)cc1 (stereo not drawn),EC50,[1],64.3 µM (active)
Cc1cc(C)c(NC=C2C(=O)NC(=O)NC2=O)c(C)c1,EC50,[2],> 120 µM (not active)
same,EC50,[3],> 60 µM (not active)
CCOC(=O)/C(C#N)=C\c1ccc(OCC(=O)Nc2ccc(C)cc2C)c(OC)c1,AC50,Cytochrome P450 2C9,25.1 µM (inconclusive)
same,AC50,Cytochrome P450 3A4,10 µM (inconclusive)
O=C1[C@@H]2C=CC=CC2=NC(=S)N1CCN1CCC(=C(c2ccc(F)cc2)c2ccc(F)cc2)CC1,AC50,Cytochrome P450 2C19; read-out: AC50,10 µM (inconclusive)
same,AC50,Cytochrome P450 3A4,3.16 µM (inconclusive)
N[N-][C+]1c2ccccc2N[C@H]1OC(=O)Nc1cccc(Cl)c1,AC50,Cytochrome P450 2D6,3.98 µM (inconclusive)
same,AC50,Cytochrome P450 2C19; read-out: AC50,3.16 µM (inconclusive)
same,AC50,Cytochrome P450 3A4,5.01 µM (inconclusive)
CCc1nnc(NC(=O)c2ccc(S(=O)(=O)NC3CCCCC3)cc2)s1,EC50,[2],> 120 µM (not active)
same,EC50,[4],> 120 µM (not active)
same,EC50,[3],> 120 µM (not active)
CCCCn1c(=N)n(CC(=O)c2ccco2)c2ccccc21,AC50,Cytochrome P450 2C19; read-out: AC50,15.8 µM (inconclusive)
same,AC50,Cytochrome P450 3A4,31.6 µM (inconclusive)
COc1ccc(-c2cn(CCO)nc2-c2ccc(OC)cc2)cc1,EC50,[2],> 120 µM (not active)
same,EC50,[4],16.1 µM (active)
same,EC50,[3],> 120 µM (not active)
CN(C)c1cc[n+](CC(=O)Nc2ccc(Oc3ccccc3)cc2)cc1,EC50,[2],14.9 µM (active)
same,EC50,[4],17.1 µM (active)
same,EC50,[3],> 120 µM (not active)
same,AC50,INS1,4.17 µM (active)
O=C(CN(C(=O)c1csnn1)c1ccc(F)c(Cl)c1)NCc1ccc(F)cc1,EC50,[1],> 260 µM (inactive)
CCCc1cn(S(=O)(=O)c2ccc(OC)cc2OC)nc1N,AC50,[5],9.53 µM (active)
O=C(NCCCN1CCOCC1)c1cc2c(s1)CSC2,AC50,Cytochrome P450 3A4,15.8 µM (inconclusive)
COC(=O)c1cc(-c2c(C)nn(-c3ccccc3)c2C)[nH]n1,EC50,[6],11.8 µM (active)
same,AC50,[5],1.2 µM (active)
same,EC50,[7],11.5 µM (active)
same,EC50,H4,11.2 µM (active)
COc1ccc(-c2nc(Cn3c(SCc4ccc(F)cc4)nc4ccncc43)c(C)o2)cc1OC,EC50,[1],34.7 µM (active)
Cc1cc2c(cc1C)-c1nnnn1C(C)(C)C2,EC50,[1],> 260 µM (inactive)
Cc1cnc(NC(=O)C(C)N2CCN(C)CC2)s1 (stereo not drawn),IC50,[8],80.4 µM (active)
O=C(NCCC[N+]1=CC=N[C@H]1c1ccccc1)N1CCCc2nc(-c3ccc(Br)cc3)ccc21,AC50,Cytochrome P450 3A4,3.16 µM (inconclusive)
CC(=O)N1CCC2(CCCN(C(=O)Nc3cccc(F)c3)C2)CC1,AC50,Cytochrome P450 3A4,31.6 µM (inconclusive)
Cc1noc(C)c1-c1cc(NCc2cccs2)ncn1,AC50,Cytochrome P450 2D6,20 µM (inconclusive)
same,AC50,Cytochrome P450 2C19,inconclusive
same,AC50,Cytochrome P450 3A4,31.6 µM (inconclusive)
O=C(CN1C(=O)C2CC=CCC2C1=O)Nc1nc2ccc(F)cc2s1 (stereo not drawn),AC50,[5],0.494 µM (active)
CSC1=N/C(=C\c2ccc(C)cc2)C(=O)S1,AC50,Cytochrome P450 3A4,39.8 µM (inconclusive)
O=C(Nc1ccccc1[N+](=O)[O-])C1C(c2ccccc2)=C1c1ccccc1,AC50,Cytochrome P450 3A4,20 µM (inconclusive)
CC(C)[C@@H](OCc1ccccc1)[C@H](C)/C=N\O[C@@H](C)c1cn([C@H](CO)Cc2ccccc2)nn1,AC50,Cytochrome P450 3A4,3.16 µM (inconclusive) and 3.98 µM (inconclusive)
Cc1ccc(NC(=O)Cc2nc(CSc3nnc(-c4ccc5c(c4)OCO5)o3)cs2)cc1,EC50,[6],82.5 µM (active)
same,EC50,[7],53.6 µM (active)
same,EC50,H4,6.97 µM (active)
Cc1ccc(S(=O)(=O)N2CCC(=O)N(C(COCc3ccc(Cl)cc3)Cc3ccccc3)CC2)cc1 (stereo not drawn),EC50,[2],36.4 µM (active)
same,EC50,[4],> 120 µM (not active)
same,EC50,[3],39.1 µM (active)
C=CCc1cc(C=O)cc(OC)c1OCc1ccc(Cl)cc1,AC50,Cytochrome P450 3A4,17.8 µM (inconclusive)
CCN1CCN(CC(=O)Nc2ccc(C)c(Br)c2)CC1,IC50,[8],95.7 µM (active)
CC(=O)/C(=C\c1ccccc1F)C(=O)c1ccccc1,AC50,Cytochrome P450 2C9,6.31 µM (inconclusive)
same,AC50,Cytochrome P450 3A4,3.16 µM (inconclusive)
same,AC50,Cytochrome P450 1A2,5.01 µM (inconclusive)
Cc1nc(SCc2cccc(F)c2)nc(O)c1C#N,AC50,[5],9.69 µM (active)
O=S(=O)(Nc1ccc(N2CCCCC2)cc1)c1ccc(F)c(F)c1,AC50,[5],4.17 µM (active)
S=C(NC1CCCCC1)NC1CC2C=CC1C2 (stereo not drawn),EC50,[1],> 260 µM (inactive)
COc1cc(CC(=O)OCC(=O)Nc2ccc(N(C)C)cc2)cc(OC)c1OC,IC50,[8],53.3 µM (active)
CN(C)c1cc(NC(=O)CN2CCCC2)c2ccccc2n1,IC50,[8],41.6 µM (active)
COc1ccc(C2CC(=O)c3cnc(N4CCc5ccccc54)nc3C2)cc1OC (stereo not drawn),EC50,[1],> 260 µM (inactive)
O=C(Cn1cccn1)N1CCCC(Nc2ccc(F)c(F)c2)C1 (stereo not drawn),AC50,[5],1.92 µM (active)
COc1cc(C(C)=NNC(=O)c2ccncc2)ccc1O,IC50,[8],49.6 µM (active)
CCN(CCNC(=O)C1CCN(S(=O)(=O)CC)CC1)c1ccccc1,AC50,[5],0.013 µM (active)
Cc1ccn(Cc2nnc(S)n2Cc2ccccc2)n1,AC50,[5],8.59 µM (active)
CCCn1nc(Oc2nc(NCC)nc(NC(C)C)n2)ccc1=O,AC50,Cytochrome P450 2C19; read-out: AC50,39.8 µM (inconclusive)
same,AC50,Cytochrome P450 3A4,0.00562 µM (inconclusive)
Oc1ccc(/C(Cc2ccccn2)=N\Nc2ccccc2)c(O)c1,AC50,[5],0.332 µM (active)
O=C1CSC(=S)N1/N=C/c1cccc(C(F)(F)F)c1,EC50,[1],> 260 µM (inactive)
C/C(=N\NC(=O)C1=NNC(=O)C1C)c1cccs1 (stereo not drawn),EC50,[6],13 µM (active)
same,EC50,[7],> 120 µM (not active)
same,EC50,H4,29.9 µM (active)
C/C(=N/NC(=O)C1CCN(S(=O)(=O)c2ccc(C)cc2)CC1)c1cccc([N+](=O)[O-])c1,EC50,[2],48 µM (active)
same,EC50,[4],22.9 µM (active)
same,EC50,[3],71 µM (active)
COc1cc(/C=N/NC(=O)CN(Cc2ccco2)S(=O)(=O)c2ccccc2)ccc1O,AC50,[5],1.13 µM (active)
same,IC50,[8],40 µM (active)
CN(C)c1ccc(/C=N/O)cc1,IC50,[8],21.8 µM (active)
C=Cc1ncc(OC)c2c1[nH]c1ccccc12,EC50,[1],9.2 µM (active)

# Reference: ChEMBL document CHEMBL1201862, “PubChem BioAssay data set” (2004)
